Test results: ChEMBL document CHEMBL3853358, “Concise SAR Exploration Based on the "Head-to-Tail" Approach: Discovery of PI4KIIIα Inhibitors Bearing Diverse Scaffolds” (ACS Med Chem Lett, 2016)

What was measured:
[1] = Inhibition of human Flag-tagged PI4K3beta expressed in insect cells preincubated with enzyme followed by PS:PI substrate and ATP addition measured after 60 mins by HTRF Transcreener ADP assay
Hepatitis C virus [2] = test: Antiviral activity against HCV genotype 1b Con1 infected in human Huh5-2 cells co-expressing subgenomic HCV replicon NS3 assessed as reduction in viral replication after 2 days by luciferase reporter gene assay; type: functional, cell-based, Hepacivirus hominis; conditions: genotype 1b Con1, Huh-5-2, 48 h
[3] = Inhibition of human Flag-tagged PI4K3alpha expressed in insect cells preincubated with enzyme followed by PS:PI substrate and ATP addition measured after 60 mins by HTRF Transcreener ADP assay
Homo sapiens = species: Homo sapiens; test: Selectivity ratio of IC50 for human Flag-tagged PI4K3beta expressed in insect cells to IC50 for human Flag-tagged PI4K3alpha expressed in insect cells
[4] = Inhibition of human Flag-tagged PI4K3alpha expressed in insect cells preincubated with enzyme followed by PS:PI substrate and ATP addition measured after 60 mins by ADP-Glo kinase assay
[5] = Inhibition of human Flag-tagged PI4K3beta expressed in insect cells preincubated with enzyme followed by PS:PI substrate and ATP addition measured after 60 mins by ADP-Glo kinase assay
[6] = Oral bioavailability in CD(Sprague-Dawley) rat at 1 mg/kg administered as single dose measured up to 25 hrs; type: ADME, organism-based; conditions: in vivo
[7] = Volume of distribution at steady state in CD(Sprague-Dawley) rat at 0.3 mg/kg, iv administered as single dose measured up to 25 hrs; type: ADME, organism-based; conditions: in vivo, read-out: Vdss
[8] = Total clearance in CD(Sprague-Dawley) rat at 0.3 mg/kg, iv administered as single dose measured up to 25 hrs; type: ADME, organism-based; conditions: in vivo
[9] = Terminal half life in CD(Sprague-Dawley) rat at 0.3 mg/kg, iv administered as single dose; type: ADME, organism-based; conditions: in vivo, read-out: beta t1/2 (converted)
[10] = MRT in CD(Sprague-Dawley) rat at 1 mg/kg, po administered as single dose; type: ADME, organism-based; conditions: in vivo
Hepatitis C virus [11] = test: Antiviral activity against HCV genotype […] Con1 infected in human Huh5-2 cells co-expressing subgenomic HCV replicon NS3 assessed as reduction in viral replication after 2 days by luciferase reporter gene assay; type: functional, cell-based, Hepacivirus hominis, genotype 1b Con1; conditions: Huh-5-2, 48 h
[12] = Metabolic stability in human liver microsomes assessed as compound remaining at 5 uM measured up to 60 mins; type: ADME; conditions: read-out: Stability
[13] = AUC (0 to infinity) in CD(Sprague-Dawley) rat at 1 mg/kg, po administered as single dose measured up to 25 hrs; type: ADME, organism-based; design: dose 1 mg/kg, route oral, time infinity; conditions: in vivo
[14] = Metabolic stability in rat liver microsomes assessed as compound remaining at 5 uM measured up to 60 mins; type: ADME; conditions: read-out: Stability
[15] = molecular target: Phosphatidylinositol 4,5-bisphosphate 3-kinase catalytic subunit beta isoform (Homo sapiens, UniProt P42338); test: Inhibition of PI3Kbeta (unknown origin) preincubated prior addition of PIP2 as substrate and ATP measured after 30 mins by HTRF assay
[16] = molecular target: Phosphatidylinositol 4,5-bisphosphate 3-kinase catalytic subunit alpha isoform (Homo sapiens, UniProt P42336); test: Inhibition of PI3Kalpha (unknown origin) preincubated prior addition of PIP2 as substrate and ATP measured after 30 mins by HTRF assay
Chain of Phosphatidylinositol 4,5-bisphosphate 3-kinase catalytic subunit alpha isoform (P42336 whole entry, canonical isoform): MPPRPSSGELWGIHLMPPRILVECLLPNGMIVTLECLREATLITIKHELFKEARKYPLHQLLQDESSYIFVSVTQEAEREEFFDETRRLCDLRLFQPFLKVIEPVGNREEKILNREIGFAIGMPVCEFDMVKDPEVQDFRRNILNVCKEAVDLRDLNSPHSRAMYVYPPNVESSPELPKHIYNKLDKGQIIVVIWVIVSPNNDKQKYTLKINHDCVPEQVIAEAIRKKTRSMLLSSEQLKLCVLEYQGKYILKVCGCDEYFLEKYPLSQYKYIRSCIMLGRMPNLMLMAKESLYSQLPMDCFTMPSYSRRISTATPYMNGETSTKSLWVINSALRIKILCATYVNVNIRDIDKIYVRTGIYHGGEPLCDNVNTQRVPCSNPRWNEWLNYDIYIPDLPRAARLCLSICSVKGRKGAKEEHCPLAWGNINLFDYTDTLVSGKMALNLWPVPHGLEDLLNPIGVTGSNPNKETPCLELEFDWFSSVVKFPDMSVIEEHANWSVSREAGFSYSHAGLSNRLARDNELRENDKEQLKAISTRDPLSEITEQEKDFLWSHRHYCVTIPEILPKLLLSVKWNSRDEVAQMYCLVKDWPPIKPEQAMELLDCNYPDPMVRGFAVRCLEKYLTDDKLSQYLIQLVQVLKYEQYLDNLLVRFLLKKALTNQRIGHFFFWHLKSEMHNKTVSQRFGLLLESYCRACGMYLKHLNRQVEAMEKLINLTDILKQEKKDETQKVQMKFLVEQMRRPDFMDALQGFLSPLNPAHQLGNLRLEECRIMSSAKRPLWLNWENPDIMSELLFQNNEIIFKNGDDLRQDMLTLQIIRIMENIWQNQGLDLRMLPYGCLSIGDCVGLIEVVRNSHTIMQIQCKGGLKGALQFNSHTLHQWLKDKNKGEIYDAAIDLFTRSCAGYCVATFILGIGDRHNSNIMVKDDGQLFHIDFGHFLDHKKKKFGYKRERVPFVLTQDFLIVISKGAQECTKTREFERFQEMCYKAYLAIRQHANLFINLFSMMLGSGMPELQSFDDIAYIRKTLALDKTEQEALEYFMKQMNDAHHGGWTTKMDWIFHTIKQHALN

Chain of Phosphatidylinositol 4,5-bisphosphate 3-kinase catalytic subunit beta isoform (P42338 whole entry, canonical isoform): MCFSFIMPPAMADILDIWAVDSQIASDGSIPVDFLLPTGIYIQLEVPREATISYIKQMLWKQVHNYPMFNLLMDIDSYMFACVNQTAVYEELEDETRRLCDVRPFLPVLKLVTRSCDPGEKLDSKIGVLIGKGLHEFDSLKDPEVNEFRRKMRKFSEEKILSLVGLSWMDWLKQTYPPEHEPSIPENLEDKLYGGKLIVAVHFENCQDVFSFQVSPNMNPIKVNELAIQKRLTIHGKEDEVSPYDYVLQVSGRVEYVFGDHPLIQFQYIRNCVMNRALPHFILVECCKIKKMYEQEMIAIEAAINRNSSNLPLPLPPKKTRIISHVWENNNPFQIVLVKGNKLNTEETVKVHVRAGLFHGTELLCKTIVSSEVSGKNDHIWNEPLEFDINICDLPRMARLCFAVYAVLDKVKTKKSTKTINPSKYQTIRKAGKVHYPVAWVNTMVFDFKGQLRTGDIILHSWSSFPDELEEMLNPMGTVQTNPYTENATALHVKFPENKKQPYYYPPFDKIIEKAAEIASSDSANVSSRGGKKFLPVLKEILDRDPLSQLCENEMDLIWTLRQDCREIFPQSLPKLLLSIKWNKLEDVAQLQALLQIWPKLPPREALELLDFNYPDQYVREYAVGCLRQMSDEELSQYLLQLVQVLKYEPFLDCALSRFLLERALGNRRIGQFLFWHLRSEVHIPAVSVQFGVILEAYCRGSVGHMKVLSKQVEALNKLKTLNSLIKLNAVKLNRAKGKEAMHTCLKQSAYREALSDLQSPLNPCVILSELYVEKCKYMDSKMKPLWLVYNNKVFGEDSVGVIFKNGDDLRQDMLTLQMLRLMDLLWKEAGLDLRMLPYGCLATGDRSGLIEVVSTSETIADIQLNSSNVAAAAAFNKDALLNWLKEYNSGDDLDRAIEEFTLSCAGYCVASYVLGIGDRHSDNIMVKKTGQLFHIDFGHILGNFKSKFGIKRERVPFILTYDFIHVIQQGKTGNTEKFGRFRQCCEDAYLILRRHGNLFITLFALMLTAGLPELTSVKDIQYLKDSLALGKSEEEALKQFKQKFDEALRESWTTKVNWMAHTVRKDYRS

| SMILES | IC50 [1] [nM] | EC50 (Hepatitis C virus [2]) [nM] | IC50 [3] [nM] | Ratio IC50 (Homo sapiens) | also measured |
| --- | --- | --- | --- | --- | --- |
| COCc1ncc(-c2c3ccc(-c4ccccc4)cc3nn2C)cc1NS(=O)(=O)c1ccc(F)cc1F | 18000 | 700 | 260 | 96 | – |
| COCc1ncc(-c2ccc3ncn(-c4ccccc4)c(=O)c3c2)cc1NS(=O)(=O)c1ccc(F)cc1F | – | 20 | – | 1200 | IC50 [4]: 4.1 nM; IC50 [5]: 4900 nM |
| COCc1ncc(-c2ccn3nnc(-c4ccccc4)c3c2)cc1NS(=O)(=O)c1ccc(F)cc1F | > 10000 | 780 | 93 | > 110 | – |
| COCc1ncc(-c2ccc3ncn(CCO)c(=O)c3c2)cc1NS(=O)(=O)c1ccc(F)cc1F | 660 | 81 | 2.5 | 260 | – |
| CCCn1cnc2ccc(-c3cnc(COC)c(NS(=O)(=O)c4ccc(F)cc4F)c3)cc2c1=O | 230 | 10 | 1.9 | 120 | – |
| COCc1ncc(-c2c3ccc(C4=CCOCC4)cc3nn2C)cc1NS(=O)(=O)c1ccc(F)cc1F | 920 | 78 | 16 | 58 | – |
| COCCn1cnc2ccc(-c3cnc(COC4CC4)c(NS(=O)(=O)c4ccc(F)cc4F)c3)cc2c1=O | 220 | 6.8 | 0.31 | 710 | bioavailability [6]: 91%; Vd [7]: 0.2 L/kg; clearance [8]: 0.667 mL/min/kg; half-life [9]: 3.3 h; MRT [10]: 5.5 h; EC50 (Hepatitis C virus [11]): 10 nM; remaining at 1 h, 5 µM [12]: 104%; AUC(0-inf) [13]: 42 µM·h; remaining at 1 h, 5 µM [14]: 91%; IC50 [15]: 1400 nM; IC50 [16]: 240 nM |
| COc1ncc(-c2ccc3ncn(-c4ccccc4)c(=O)c3c2)cc1NS(=O)(=O)c1ccc(F)cc1F | – | – | – | 56 | IC50 [4]: 14 nM; IC50 [5]: 780 nM |
| COCCn1cnc2ccc(-c3cnc(COC)c(NS(=O)(=O)c4ccc(F)cc4F)c3)cc2c1=O | 130 | 13 | 1 | 130 | – |
| COCc1ncc(-c2ccc3ncc(=O)n(-c4ccccc4)c3c2)cc1NS(=O)(=O)c1ccc(F)cc1F | 1400 | 41 | 2.2 | 640 | – |
| COc1ncc(-c2ccc3ncn(-c4ccccc4)c(=O)c3c2)cc1CS(=O)(=O)c1ccc(F)cc1F | – | > 30000 | – | > 30 | IC50 [4]: > 1000 nM; IC50 [5]: > 30000 nM |
| COCc1ncc(-c2ccc3nn(C)c(C4CCOCC4)c3c2)cc1NS(=O)(=O)c1ccc(F)cc1F | 39 | 29 | 2 | 20 | – |
| COCc1ncc(-c2ccc3ncn(CCS(C)(=O)=O)c(=O)c3c2)cc1NS(=O)(=O)c1ccc(F)cc1F | 160 | 88 | 1.6 | 100 | – |
| COCc1ncc(-c2c3ccc(C4CCOCC4)cc3nn2C)cc1NS(=O)(=O)c1ccc(F)cc1F | 300 | 31 | 5.7 | 53 | – |
| COCc1ncc(-c2ccc3nnn(-c4ccccc4)c3c2)cc1NS(=O)(=O)c1ccc(F)cc1F | 3700 | 1000 | 50 | 74 | – |
| COC(C)c1ncc(-c2ccc3ncn(-c4ccccc4)c(=O)c3c2)cc1NS(=O)(=O)c1ccc(F)cc1F (racemic) | – | 400 | – | > 3000 | IC50 [4]: 100 nM; IC50 [5]: > 30000 nM |
| COc1ncc(-c2ccc3ncn(-c4ccccc4)c(=O)c3c2)cc1S(=O)(=O)Nc1ccc(F)cc1F | – | 99 | – | > 160 | IC50 [4]: 190 nM; IC50 [5]: > 30000 nM |
| COCc1ncc(-c2ccc3ncc(-c4ccccc4)c(=O)n3c2)cc1NS(=O)(=O)c1ccc(F)cc1F | 8200 | 68 | 8 | 1030 | – |
| COCc1ncc(-c2ccc3ncn(-c4ccccc4)c3c2)cc1NS(=O)(=O)c1ccc(F)cc1F | 410 | 880 | 13 | 32 | – |
| COCc1ncc(-c2ccc3nn(C)c(C4=CCOCC4)c3c2)cc1NS(=O)(=O)c1ccc(F)cc1F | 98 | 50 | 3.1 | 32 | – |
| COCc1ncc(-c2ccc3nn(C)c(-c4ccccc4)c3c2)cc1NS(=O)(=O)c1ccc(F)cc1F | 200 | 610 | 9.1 | 22 | – |
